# ChEMBL document CHEMBL4376898, “Enhanced Activity against Multidrug-Resistant Bacteria through Coapplication of an Analogue of Tachyplesin I and an Inhibitor of the QseC/B Signaling Pathway” (J Med Chem, 2020)
# Calls of active or inactive are those of the source. No cut-off for these calls is given here.
# Tests used:
# [1] = Toxicity in human erythrocytes assessed as induction of hemolysis at 16 ug/ml incubated for 1 hr by spectrometry; format: cell-based, Erythrocyte; settings: read-out: Activity
# [2] = Stability in human plasma assessed as parent compound remaining at […] measured after 2 hrs by HPLC analysis; format: ADME, cell-free; settings: read-out: Stability
# [3] = Stability in human plasma assessed as parent compound remaining at […] measured after 6 hrs by HPLC analysis; format: ADME, cell-free; settings: read-out: Stability
# [4] = system: Erythrocyte; assay: Toxicity in human erythrocytes assessed as induction of hemolysis at <50 ug/ml incubated for 1 hr by spectrometry; format: cell-based
# [5] = system: L02; assay: Cytotoxicity in human L02 cells assessed as reduction in cell viability at <32 ug/ml incubated for 48 hrs by resazurin dye based assay; settings: l02, 48 h
# [6] = system: L02; assay: Cytotoxicity in human L02 cells assessed as reduction in cell viability at >64 ug/ml incubated for 48 hrs by resazurin dye based assay; settings: l02, 48 h
# [7] = system: Enterobacter cloacae; assay: Antimicrobial activity against Enterobacter cloacae BAA 1143 assessed as inhibition of visible growth incubated for 18 hrs; format: functional
# [8] = system: Bacillus subtilis; assay: Antimicrobial activity against Bacillus subtilis 168 assessed as inhibition of visible growth incubated for 18 hrs; format: functional
# [9] = system: Bacillus subtilis; assay: Bactericidal activity against Bacillus subtilis 168; format: functional
# [10] = system: Escherichia coli; assay: Antimicrobial activity against Escherichia coli ATCC 25923 assessed as inhibition of visible growth incubated for 18 hrs; format: functional
# [11] = system: Escherichia coli; assay: Antimicrobial activity against Escherichia coli BAA 2469 assessed as inhibition of visible growth incubated for 18 hrs; format: functional
# [12] = system: Escherichia coli; assay: Antimicrobial activity against Escherichia coli K-12 assessed as inhibition of visible growth incubated for 18 hrs; format: functional
# [13] = system: Erythrocyte; assay: Toxicity in human erythrocytes assessed as induction of hemolysis incubated for 1 hr by visual absorption spectroscopy; format: cell-based
# [14] = Stability in human plasma assessed as parent compound degradation at […] measured after 6 hrs by HPLC analysis; format: ADME, cell-free; settings: read-out: Drug degradation
# [15] = system: Staphylococcus aureus; assay: Antimicrobial activity against Staphylococcus aureus ATCC 29213 assessed as inhibition of visible growth incubated for 18 hrs; format: functional
# [16] = system: Staphylococcus aureus; assay: Antimicrobial activity against Staphylococcus aureus BAA 41 assessed as inhibition of visible growth incubated for 18 hrs; format: functional
# [17] = system: Staphylococcus aureus; assay: Antimicrobial activity against Staphylococcus aureus BAA 44 assessed as inhibition of visible growth incubated for 18 hrs; format: functional
# [18] = system: Klebsiella pneumoniae; assay: Antimicrobial activity against Klebsiella pneumoniae BAA 1144 assessed as inhibition of visible growth incubated for 18 hrs; format: functional
# [19] = system: Klebsiella pneumoniae; assay: Antimicrobial activity against Klebsiella pneumoniae BAA 2470 assessed as inhibition of visible growth incubated for 18 hrs; format: functional
# [20] = system: Pseudomonas aeruginosa; assay: Antimicrobial activity against Pseudomonas aeruginosa ATCC 27853 assessed as inhibition of visible growth incubated for 18 hrs; format: functional
# [21] = system: Pseudomonas aeruginosa; assay: Antimicrobial activity against Pseudomonas aeruginosa BAA 2108 assessed as inhibition of visible growth incubated for 18 hrs; format: functional
# [22] = system: Acinetobacter baumannii; assay: Antimicrobial activity against Acinetobacter baumannii ATCC 19606 assessed as inhibition of visible growth incubated for 18 hrs; format: functional
# [23] = system: Enterococcus faecium; assay: Antimicrobial activity against Enterococcus […] ATCC 29212 assessed as inhibition of visible growth incubated for 18 hrs; format: functional
# [24] = system: Escherichia coli; assay: Bactericidal activity against Escherichia coli K-12; format: functional
# [25] = system: Staphylococcus aureus; assay: Bactericidal activity against Staphylococcus aureus ATCC 29213; format: functional
# [26] = system: Pseudomonas aeruginosa; assay: Bactericidal activity against Pseudomonas aeruginosa ATCC 27853; format: functional
# [27] = system: Shigella flexneri; assay: Bactericidal activity against Shigella flexneri ATCC 29903; format: functional
# [28] = Bactericidal activity against Lysobacter enzymogenes YC36; format: functional
# [29] = system: Acinetobacter baumannii; assay: Bactericidal activity against Acinetobacter baumannii ATCC 19606; format: functional; settings: ATCC 19606 = CIP 70.34 = JCM 6841
# [30] = system: Enterococcus faecium; assay: Bactericidal activity against Enterococcus […] ATCC 29212; format: functional
# [31] = system: Erythrocyte; assay: Toxicity in human erythrocytes assessed as induction of hemolysis incubated for 1 hr by spectrometry; format: cell-based
# [32] = system: Lysobacter enzymogenes; assay: Antimicrobial activity against Lysobacter enzymogenes YC36 assessed as inhibition of visible growth incubated for 18 hrs; format: functional
# [33] = system: Lysobacter enzymogenes; assay: Bactericidal activity against Lysobacter enzymogenes YC36 at 4 ug/ml; format: functional
# [34] = Antimicrobial activity against Lysobacter enzymogenes YC36 assessed as inhibition of visible growth measured after 7th generation exposure to compound by continuous repeated transfer assay relative to before passage; format: functional
# [35] = system: Lysobacter enzymogenes; assay: Germicidal activity against Lysobacter enzymogenes YC36 at 5 to 10 pM; format: functional
# [36] = system: Lysobacter enzymogenes; assay: Induction of bacterial cell membrane leakage in Lysobacter enzymogenes YC36 assessed as induction of serious depressions with leakage of intracellular contents surrounding bacteria by atomic force microscopy; format: functional, cell-based
# [37] = system: Lipid bilayer; assay: Induction of membrane lysis in LUVs composed of Escherichia coli lipid extract filled with 5-carboxyfluorescein incubated in dark for 20 mins by fluorescence based assay
# [38] = system: Lysobacter enzymogenes; assay: Induction of drug efflux pumps gene expression in Lysobacter enzymogenes YC36 assessed as increase in czcB expression at 2 ug/ml by genome-wide transcription profiling assay; format: functional
# [39] = system: Lysobacter enzymogenes; assay: Induction of drug efflux pumps gene expression in Lysobacter enzymogenes YC36 assessed as increase in nodT expression at 2 ug/ml by genome-wide transcription profiling assay; format: functional
# [40] = system: Lysobacter enzymogenes; assay: Induction of drug efflux pumps gene expression in Lysobacter enzymogenes YC36 assessed as increase in yceL expression at 2 ug/ml by genome-wide transcription profiling assay; format: functional
# [41] = system: Lysobacter enzymogenes; assay: Induction of drug efflux pumps gene expression in Lysobacter enzymogenes YC36 assessed as increase in ftsX expression at 2 ug/ml by genome-wide transcription profiling assay; format: functional
# [42] = system: Lysobacter enzymogenes; assay: Induction of drug efflux pumps gene expression in Lysobacter enzymogenes YC36 assessed as increase in QseC expression at 2 ug/ml by genome-wide transcription profiling assay; format: functional
# [43] = system: Lysobacter enzymogenes; assay: Induction of drug efflux pumps gene expression in Lysobacter enzymogenes YC36 assessed as increase in QseB expression at 2 ug/ml by genome-wide transcription profiling assay; format: functional
# [44] = system: Lysobacter enzymogenes; assay: Induction of drug efflux pumps gene expression in Lysobacter enzymogenes YC36 with delta qseB mutant at 2 ug/ml by genome-wide transcription profiling assay; format: functional
# [45] = system: Lysobacter enzymogenes; assay: Bactericidal activity against Lysobacter enzymogenes YC36 with delta qseB mutant; format: functional
# [46] = system: Lysobacter enzymogenes; assay: Bactericidal activity against Lysobacter enzymogenes YC36 at 10 ug/ml; format: functional
# [47] = system: Lysobacter enzymogenes; assay: Bactericidal activity against Lysobacter enzymogenes YC36 with delta qseC mutant; format: functional
# [48] = system: Lysobacter enzymogenes; assay: Bactericidal activity against Lysobacter enzymogenes YC36 at 2 ug/ml in presence of 5 pM QseC inhibitor LED209; format: functional
# [49] = system: Pseudoalteromonas antarctica; assay: Bactericidal activity against Pseudoalteromonas antarctica at 2 ug/ml in presence of 5 pM QseC inhibitor LED209; format: functional, organism-based
# [50] = system: Stenotrophomonas maltophilia; assay: Bactericidal activity against Stenotrophomonas maltophilia at 2 ug/ml in presence of 5 pM QseC inhibitor LED209; format: functional, organism-based
molecule,measurement,setting,value
CC[C@@H](C)[C@H]1NC(=O)CNC(=O)[C@@H](CCCNC(=N)N)NC(=O)[C@@H](Cc2ccc(O)cc2)NC(=O)[C@H]2CSSC[C@@H](NC1=O)C(=O)N[C@H](Cc1ccc(O)cc1)C(=O)N[C@H](CCCNC(=N)N)C(=O)N[C@H](CCCNC(=N)N)C(=O)N[C@@H](C(=O)N[C@H](CCCNC(=N)N)C(N)=O)CSSC[C@@H](NC(=O)[C@@H](Cc1c[nH]c3ccccc13)NC(=O)[C@H](N)CCCCN)C(=O)N[C@H](Cc1ccccc1)C(=O)N[C@H](CCCNC(=N)N)C(=O)N[C@H](C(C)C)C(=O)N2,"hemolysis at 1 h, 16 ug/ml",[1],10%
same,remaining at 2 h,[2],> 80%
same,remaining at 6 h,[3],20%
same,Activity,[4],Toxic
same,Activity,[5],Non-Toxic
same,Activity,[6],Toxic
CC[C@H](C)[C@@H]1NC(=O)CNC(=O)[C@H](CCCNC(=N)N)NC(=O)[C@H](Cc2ccc(O)cc2)NC(=O)[C@@H]2CSSC[C@H](NC1=O)C(=O)N[C@@H](Cc1ccc(O)cc1)C(=O)N[C@@H](CCCNC(=N)N)C(=O)N[C@@H](CCCNC(=N)N)C(=O)N[C@H](C(=O)N[C@@H](CCCNC(=N)N)C(N)=O)CSSC[C@H](NC(=O)[C@H](Cc1c[nH]c3ccccc13)NC(=O)[C@@H](N)CCCCN)C(=O)N[C@@H](Cc1ccccc1)C(=O)N[C@@H](CCCNC(=N)N)C(=O)N[C@@H](C(C)C)C(=O)N2,MIC,"[7]; BAA 1143, 18 h",8 µg/mL
same,MIC,"[8]; Bacillus subtilis, 168, 18 h",4 µg/mL
same,MBC,[9],16 to 64 µg/mL
same,MIC,"[10]; ATCC 25923, 18 h",2 to 4 µg/mL
same,MIC,"[11]; BAA 2469, 18 h",8 µg/mL
same,MIC,"[12]; K-12, 18 h",4 µg/mL
same,MHC,[13],0.25 µg/mL
same,remaining at 2 h,[2],20%
same,metabolised at 6 h,[14],100%
same,MIC,"[15]; ATCC 29213, 18 h",8 µg/mL
same,MIC,"[16]; BAA 41, 18 h",4 µg/mL
same,MIC,"[17]; BAA 44, 18 h",4 µg/mL
same,MIC,"[18]; BAA 1144, 18 h",8 µg/mL
same,MIC,"[19]; BAA 2470, 18 h",16 µg/mL
same,MIC,"[20]; ATCC 27853, 18 h",4 to 8 µg/mL
same,MIC,"[21]; BAA 2108, 18 h",8 µg/mL
same,MIC,"[22]; ATCC 19606 = CIP 70.34 = JCM 6841, 18 h",8 to 16 µg/mL
same,MIC,"[23]; ATCC 29212, 18 h",8 µg/mL
same,MBC,[24],16 to 64 µg/mL
same,MBC,[25],16 to 64 µg/mL
same,MBC,[26],16 to 64 µg/mL
same,MBC,[27],16 to 64 µg/mL
same,MBC,[28],16 to 64 µg/mL
same,MBC,[29],16 to 64 µg/mL
same,MBC,[30],16 to 64 µg/mL
same,Activity,[31],Dose-dependent effect
same,Activity,[4],Toxic
same,Activity,[5],Non-Toxic
same,Activity,[6],Toxic
same,Activity,[32],Dose-dependent effect
same,Activity,[33],inactive
same,fold change (FC),[34],2
O=S(=O)(Nc1ccccc1)c1ccc(NC(=S)Nc2ccccc2)cc1,Activity,[35],inactive
COLISTIN,MIC,[7],4 µg/mL
same,MIC,[8],16 µg/mL
same,MIC,[10],2 µg/mL
same,MIC,[11],2 µg/mL
same,MIC,[12],2 µg/mL
same,MIC,[15],> 128 µg/mL
same,MIC,[16],> 128 µg/mL
same,MIC,[17],> 128 µg/mL
same,MIC,[18],2 µg/mL
same,MIC,[19],2 µg/mL
same,MIC,[20],4 µg/mL
same,MIC,[21],4 µg/mL
same,MIC,[22]; ATCC 19606 = CIP 70.34 = JCM 6841,4 µg/mL
same,MIC,[23],> 128 µg/mL
CC[C@H](C)[C@H]1NC(=O)CNC(=O)[C@@H](CCCNC(=N)N)NC(=O)[C@@H](Cc2ccc(O)cc2)NC(=O)[C@H]2CSSC[C@@H](NC1=O)C(=O)N[C@H](Cc1ccc(O)cc1)C(=O)N[C@H](CCCNC(=N)N)C(=O)N[C@H](CCCNC(=N)N)C(=O)N[C@@H](C(=O)N[C@H](CCCNC(=N)N)C(N)=O)CSSC[C@@H](NC(=O)[C@@H](Cc1c[nH]c3ccccc13)NC(=O)[C@H](N)CCCCN)C(=O)N[C@H](Cc1ccccc1)C(=O)N[C@H](CCCNC(=N)N)C(=O)N[C@H](C(C)C)C(=O)N2,Activity,[36],Active
same,Activity,[37],Dose-dependent effect
same,Activity,[32],Dose-dependent effect
same,Activity,[33],Active
same,Activity,[38],Active
same,Activity,[39],Active
same,Activity,[40],Active
same,Activity,[41],Active
same,Activity,[42],Active
same,Activity,[43],Active
same,Activity,[44],inactive
same,Activity,[45],Active
same,Activity,[46],inactive
same,Activity,[47],Active
same,Activity,[48],Active
same,Activity,[49],Active
same,Activity,[50],Active
